One may read the Ki as a dissociation constant, usually derived from enzyme kinetics or from competition with a known ligand. Read a low Ki as tighter binding.

This is an account of results in patent publication US6372797B1, “Treatment of menstrual function” (Knoll Pharmaceutical Company, priority 1999, dated 2002).

In assay [1] the target is [3H]Noradenaline reuptake. In words: in vitro [3H]noradrenaline reuptake inhibition in rat brain tissue. The assay is classed as biochemical. Conditions: means of ≧ 3 separate determinations.
A further assay addresses [3H]Dopamine reuptake. In words: in vitro [3H]dopamine reuptake inhibition in rat brain tissue. The assay is classed as biochemical. The note with it: means of ≧ 3 separate determinations.

As to `COc1ccc(C(CN(C)C)C2(O)CCCCC2)cc1` (stereo not shown) [Venlafaxine], the Ki in assay [1] turned out to be 196 nM; in assay [3H]Dopamine reuptake, 2590 nM.
For `CC(NC(C)(C)C)C(=O)c1cccc(Cl)c1` (stereo not shown) [Bupropion], the figures for the inhibition constant (Ki) in assay [1] and in assay [3H]Dopamine reuptake were 2590 nM and 409 nM, respectively.
